Measured values from ChEMBL document CHEMBL1649104, “Benzofuran Derivatives as Potent, Orally Active S1P1 Receptor Agonists: A Preclinical Lead Molecule for MS” (ACS Med Chem Lett, 2011).
The source made the active and inactive calls. The rule behind the calls is not given here.

Experiments:
[1] = biological target: T1, Sphingosine 1-phosphate receptor 3 (Homo sapiens, UniProt Q99500); experiment: Displacement of [33P]S1P from human S1P3R expressed in CHO cell membranes
[2] = biological target: T1, Sphingosine 1-phosphate receptor 3; experiment: Agonist activity at human S1P3R expressed in CHO cells by Ca(2+) mobilization assay; type: functional, cell-based
[3] = biological target: T2, Sphingosine 1-phosphate receptor 1 (Homo sapiens, UniProt P21453); experiment: Induction of human GFP-tagged chimeric S1P1R internalization in human U2Os cells by fluorescence microscopy; type: cell-based
T2 sequence (P21453 whole entry): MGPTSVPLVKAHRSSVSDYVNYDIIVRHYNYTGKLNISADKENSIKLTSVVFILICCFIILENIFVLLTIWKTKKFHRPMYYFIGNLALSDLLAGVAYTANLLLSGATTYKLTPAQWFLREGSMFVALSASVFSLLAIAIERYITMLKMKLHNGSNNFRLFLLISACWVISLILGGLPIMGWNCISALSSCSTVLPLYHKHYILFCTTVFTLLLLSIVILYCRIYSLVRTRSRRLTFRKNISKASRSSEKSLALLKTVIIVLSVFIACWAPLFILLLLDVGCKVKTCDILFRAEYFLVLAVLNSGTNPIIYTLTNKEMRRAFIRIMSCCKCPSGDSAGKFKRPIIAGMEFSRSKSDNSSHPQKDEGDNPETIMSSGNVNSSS

[4] = biological target: T2, Sphingosine 1-phosphate receptor 1; experiment: Induction of human GFP-tagged chimeric S1P1R internalization in human U2Os cells by fluorescence microscopy relative to 1-(4-(6-benzylbenzofuran-2-yl)-3-fluorobenzyl)azetidine-3-carboxylic acid; type: cell-based
Homo sapiens = species: Homo sapiens; experiment: Selectivity for human S1P1R over human S1P3R
Rattus norvegicus [5] = experiment: Lymphopenic activity in Lewis rat assessed as reduction in blood lymphocyte counts at 3 mg/kg, po measured 24 hrs post dose; type: functional
[6] = biological target: Voltage-gated inwardly rectifying potassium channel KCNH2 (Homo sapiens, UniProt Q12809); experiment: Inhibition of human ERG by patch-clamp method
Sequence of Voltage-gated inwardly rectifying potassium channel KCNH2 (Q12809 whole entry): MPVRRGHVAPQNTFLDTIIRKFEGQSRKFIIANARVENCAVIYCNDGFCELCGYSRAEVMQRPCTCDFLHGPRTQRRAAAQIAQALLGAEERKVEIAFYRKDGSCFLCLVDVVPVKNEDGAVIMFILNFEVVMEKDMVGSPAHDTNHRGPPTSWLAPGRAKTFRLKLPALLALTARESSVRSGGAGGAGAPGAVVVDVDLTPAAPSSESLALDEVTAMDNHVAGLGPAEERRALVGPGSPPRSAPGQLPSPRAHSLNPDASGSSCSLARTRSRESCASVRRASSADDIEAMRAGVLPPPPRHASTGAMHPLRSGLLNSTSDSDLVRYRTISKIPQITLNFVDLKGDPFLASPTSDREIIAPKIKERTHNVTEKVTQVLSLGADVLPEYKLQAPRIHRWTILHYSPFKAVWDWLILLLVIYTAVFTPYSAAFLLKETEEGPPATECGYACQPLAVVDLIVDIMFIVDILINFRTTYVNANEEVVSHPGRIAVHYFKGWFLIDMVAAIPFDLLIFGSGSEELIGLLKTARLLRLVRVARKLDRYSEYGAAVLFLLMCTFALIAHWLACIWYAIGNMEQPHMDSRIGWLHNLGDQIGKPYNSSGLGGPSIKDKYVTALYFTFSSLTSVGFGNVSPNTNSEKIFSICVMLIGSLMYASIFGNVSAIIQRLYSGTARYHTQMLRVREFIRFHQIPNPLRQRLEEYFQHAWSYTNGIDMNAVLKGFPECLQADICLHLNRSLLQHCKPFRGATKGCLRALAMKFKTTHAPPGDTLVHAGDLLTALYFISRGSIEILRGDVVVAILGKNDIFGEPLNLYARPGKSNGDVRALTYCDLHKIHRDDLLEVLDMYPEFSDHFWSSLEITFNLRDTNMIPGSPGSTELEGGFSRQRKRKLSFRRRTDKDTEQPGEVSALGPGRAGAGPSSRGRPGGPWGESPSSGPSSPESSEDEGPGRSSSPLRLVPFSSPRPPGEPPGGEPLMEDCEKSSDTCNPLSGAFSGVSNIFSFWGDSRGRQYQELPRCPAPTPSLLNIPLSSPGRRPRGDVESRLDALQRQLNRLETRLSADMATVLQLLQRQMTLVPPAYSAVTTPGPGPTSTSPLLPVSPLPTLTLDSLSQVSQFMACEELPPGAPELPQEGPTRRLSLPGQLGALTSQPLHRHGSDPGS

[7] = Toxicity in rat assessed as No observed adverse effect level by 4 day repeated dose toxicity study; type: organism-based; conditions: in vivo
[8] = Oral bioavailability in Beagle dog 3 mg/kg; type: ADME, organism-based, Canis lupus familiaris; conditions: in vivo
[9] = Mean residence time in Sprague-Dawley rat at 1 mg/kg, iv or 3 mg/kg, po; type: ADME, organism-based; conditions: in vivo
Rattus norvegicus [10] = experiment: Toxicity in telemetered Sprague-Dawley rat assessed as increase in mean arterial pressure at 40 mg/kg, po measured 4 to 6 hrs post dose; type: organism-based, Artery; design: dose 40 mg/kg, route oral; conditions: in vivo
Rattus norvegicus [11] = experiment: Lymphopenic activity in po dosed Lewis rat assessed as reduction in blood lymphocyte counts measured 24 hrs post dose; type: functional, organism-based
[12] = Terminal half life in Sprague-Dawley rat at 1 mg/kg, iv or 3 mg/kg, po; type: ADME, organism-based; conditions: in vivo, read-out: beta t1/2 (converted)
[13] = Volume of distribution at steady state in cynomolgus monkey at 1 mg/kg, iv or 5 mg/kg, po; type: ADME, organism-based, Macaca fascicularis; conditions: in vivo, read-out: Vdss
Rattus norvegicus [14] = experiment: Toxicity in telemetered Sprague-Dawley rat assessed as effect on heart rate at 20 mg/kg, po; type: organism-based; design: dose 20 mg/kg, route oral; conditions: in vivo
[15] = Oral bioavailability in Sprague-Dawley rat 3 mg/kg; type: ADME, organism-based; conditions: in vivo
[16] = Oral bioavailability in cynomolgus monkey 5 mg/kg; type: ADME, organism-based, Macaca fascicularis; conditions: in vivo
[17] = Inhibition of Cytochrome P450; type: ADME
[18] = Mean residence time in Beagle dog at 2 mg/kg, iv or 3 mg/kg, po; type: ADME, organism-based, Canis lupus familiaris; conditions: in vivo
[19] = Induction of Cytochrome P450; type: ADME
Rattus norvegicus [20] = experiment: Toxicity in telemetered Sprague-Dawley rat assessed as effect on heart rate at 40 mg/kg, po; type: organism-based; design: dose 40 mg/kg, route oral; conditions: in vivo
[21] = Mean residence time in cynomolgus monkey at 1 mg/kg, iv or 5 mg/kg, po; type: ADME, organism-based, Macaca fascicularis; conditions: in vivo
Mus musculus = experiment: Reversing disease course in experimental autoimmune encephalitis SJL mouse model of multiple sclerosis at 10 mg/kg, po; type: functional, organism-based; design: dose 10 mg/kg
[22] = Volume of distribution at steady state in Beagle dog at 2 mg/kg, iv or 3 mg/kg, po; type: ADME, organism-based, Canis lupus familiaris; conditions: in vivo, read-out: Vdss
[23] = Metabolic stability in human liver microsomes assessed as half life; type: ADME, Microsome
Rattus norvegicus [24] = experiment: Lymphopenic activity in Lewis rat assessed as reduction in blood lymphocyte counts at 1 mg/kg, po measured 24 hrs post dose; type: functional
[25] = Mutagenic activity in Salmonella Typhimurium by Ames assay; type: toxicity; conditions: salmonella enterica subsp. enterica serovar typhimurium
[26] = Clearance in Beagle dog at 2 mg/kg, iv or 3 mg/kg, po; type: ADME, organism-based, Canis lupus familiaris; conditions: in vivo
[27] = Clearance in cynomolgus monkey at 1 mg/kg, iv or 5 mg/kg, po; type: ADME, organism-based, Macaca fascicularis; conditions: in vivo
[28] = Terminal half life in cynomolgus monkey at 1 mg/kg, iv or 5 mg/kg, po; type: ADME, organism-based, Macaca fascicularis; conditions: in vivo, read-out: beta t1/2 (converted)
Rattus norvegicus [29] = experiment: Toxicity in telemetered Sprague-Dawley rat assessed as increase in mean arterial pressure at 20 mg/kg, po measured 4 to 6 hrs post dose; type: organism-based, Artery; design: dose 20 mg/kg, route oral; conditions: in vivo
[30] = Clearance in Sprague-Dawley rat at 1 mg/kg, iv or 3 mg/kg, po; type: ADME, organism-based; conditions: in vivo
[31] = Terminal half life in Beagle dog at 2 mg/kg, iv or 3 mg/kg, po; type: ADME, organism-based, Canis lupus familiaris; conditions: in vivo, read-out: beta t1/2 (converted)
[32] = Volume of distribution at steady state in Sprague-Dawley rat at 1 mg/kg, iv or 3 mg/kg, po; type: ADME, organism-based; conditions: in vivo, read-out: Vdss
[33] = biological target: T2, Sphingosine 1-phosphate receptor 1; experiment: Agonist activity at human S1P1R expressed in CHO cells assessed as stimulation of [35S]GTPgammaS binding; type: functional, cell-based

T1 sequence (Q99500 whole entry): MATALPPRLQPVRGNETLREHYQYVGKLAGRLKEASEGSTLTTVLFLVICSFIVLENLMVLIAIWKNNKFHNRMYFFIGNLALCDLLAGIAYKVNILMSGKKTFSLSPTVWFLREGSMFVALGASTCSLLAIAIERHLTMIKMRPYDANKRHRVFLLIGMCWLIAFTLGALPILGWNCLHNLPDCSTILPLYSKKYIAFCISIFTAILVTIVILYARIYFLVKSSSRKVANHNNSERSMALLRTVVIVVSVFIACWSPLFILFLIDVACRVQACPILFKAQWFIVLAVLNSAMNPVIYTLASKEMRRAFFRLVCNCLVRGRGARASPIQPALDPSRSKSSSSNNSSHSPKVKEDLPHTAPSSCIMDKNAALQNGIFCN

CC(C)Cc1ccc(-c2nc(-c3ccc(CN4CC(C(=O)O)C4)cc3)no2)cc1
IC50 [1]: 12 µM

CCCCOc1ccc2oc(-c3ccc(CN4CC(C(=O)O)C4)cc3OC)cc2c1
EC50 [2]: > 25 µM | EC50 [3]: 0.653 µM | Efficacy [4]: 117%

CC(C)Cc1ccc2oc(-c3ccc(CN4CC(C(=O)O)C4)cc3)cc2c1
EC50 [2]: 1.9 µM | EC50 [3]: 0.15 µM

O=C(O)C1CN(Cc2ccc(-c3cc4cc(N5CCCCC5)ccc4o3)cc2)C1
EC50 [2]: 1.44 µM | EC50 [3]: 0.62 µM | Selectivity ratio (Homo sapiens): 2

O=C(O)C1CN(Cc2ccc(-c3cc4cc(C5CCCCC5)ccc4o3)c(F)c2)C1
EC50 [2]: > 25 µM | EC50 [3]: 0.048 µM | Efficacy [4]: 100%

O=C(O)C1CN(Cc2ccc(-c3cc4cc(Cc5ccccc5)ccc4o3)c(F)c2)C1
inhibition in vivo at 3 mg/kg (Rattus norvegicus [5]): 75% | IC50 [6]: 17 µM | EC50 [2]: 27 µM | NOAEL at 96 h [7]: 20 mg/kg | EC50 [3]: 0.057 µM | bioavailability [8]: 51% | MRT [9]: 12.7 h | Activity (Rattus norvegicus [10]): Toxic | inhibition (Rattus norvegicus [11]): Dose-dependent effect | half-life [12]: 12.1 h | Vd [13]: 1 L/kg | Activity (Rattus norvegicus [14]): Non-toxic | bioavailability [15]: 80% | bioavailability [16]: 88% | inhibition (INH) [17]: Not Active | MRT [18]: 9 h | Activity [19]: Not Active | Activity (Rattus norvegicus [20]): Non-toxic | MRT [21]: 3.4 h | inhibition (Mus musculus): Active | Vd [22]: 2.2 L/kg | half-life [23]: > 1.5 h | inhibition in vivo at 1 mg/kg (Rattus norvegicus [24]): 75% | Activity [25]: Non-toxic | clearance [26]: 4.43 mL/min/kg | clearance [27]: 5.15 mL/min/kg | half-life [28]: 4.7 h | Activity (Rattus norvegicus [29]): Toxic | clearance [30]: 2.3 mL/min/kg | Selectivity ratio (Homo sapiens): > 1000 | half-life [31]: 21.1 h | Vd [32]: 1.7 L/kg

O=C(O)C1CN(Cc2ccc(-c3cc4cc(OCC5CCCC5)ccc4o3)c(F)c2)C1
EC50 [2]: > 25 µM | EC50 [3]: 0.454 µM | Efficacy [4]: 71%

O=C(O)C1CN(Cc2ccc(-c3cc4cc(Oc5ccccc5)ccc4o3)cc2)C1
EC50 [2]: > 25 µM

CCCCOc1ccc2oc(-c3ncc(CN4CC(C(=O)O)C4)s3)cc2c1
EC50 [2]: > 25 µM | EC50 [3]: > 1 µM

CCCCOc1ccc2oc(-c3ccc(CN4CC(C(=O)O)C4)cc3Cl)cc2c1
EC50 [2]: 10.3 µM | EC50 [3]: 0.158 µM | Efficacy [4]: 104%

CC(C)(C)c1ccc(-c2nnc(-c3ccc(CN4CC(C(=O)O)C4)cc3)o2)cc1
IC50 [1]: > 10 µM

CCCCOc1ccc2cc(-c3ccc(CN4CC(C(=O)O)C4)cc3)oc2c1
EC50 [2]: 25 µM | EC50 [3]: 2.29 µM | Efficacy [4]: 89%

O=C(O)C1CN(Cc2ccc(-c3cc4cc(Cc5ccccc5)ccc4o3)cc2)C1
EC50 [2]: > 4.3 µM | EC50 [3]: 2.07 µM | EC50 [33]: 0.44 µM

CC(C)(C)c1ccc(-c2noc(-c3ccc(CN4CC(C(=O)O)C4)cc3)n2)cc1
IC50 [1]: > 10 µM

O=C(O)C1CN(Cc2ccc(-c3cc4cc(-c5cccnc5)ccc4o3)cc2)C1
EC50 [2]: > 25 µM | EC50 [3]: 5.03 µM | EC50 [33]: > 1 µM

O=C(O)C1CN(Cc2ccc(-c3cc4cc(OCC5CC5)ccc4o3)c(F)c2)C1
EC50 [2]: 4.8 µM | EC50 [3]: 0.29 µM | Efficacy [4]: 156%

O=C(O)C1CN(Cc2ccc(-c3cc4cc(C5CCCCC5)ccc4o3)cc2)C1
EC50 [2]: > 25 µM | EC50 [3]: 0.46 µM | EC50 [33]: 0.6 µM

O=C(O)C1CN(Cc2ccc(-c3cc4cc(C5CCCCC5)ccc4o3)nc2)C1
EC50 [2]: > 25 µM | EC50 [3]: 0.424 µM | Efficacy [4]: 115%

CCCCOc1ccc2oc(-c3ccc(CN4CC(C(=O)O)C4)cc3)cc2c1
EC50 [2]: > 7.2 µM

O=C(O)C1CN(Cc2ccc(-c3cc4cc(CCc5ccccc5)ccc4o3)cc2)C1
EC50 [2]: > 25 µM | EC50 [3]: 0.354 µM

FC(F)(F)c1cccc(-c2noc(-c3cc(-c4ccccc4)c(C(F)(F)F)s3)n2)c1
IC50 [1]: > 10 µM

CCCCc1ccc2oc(-c3ccc(CN4CC(C(=O)O)C4)cc3)cc2c1
EC50 [2]: > 25 µM | EC50 [3]: 2.48 µM | EC50 [33]: 0.35 µM

O=C(O)C1CN(Cc2ccc(-c3cc4cc(Cc5ccccc5)ccc4o3)cc2F)C1
EC50 [2]: 3.43 µM | EC50 [3]: 0.253 µM | Efficacy [4]: 100%
